Test results reported in ChEMBL document CHEMBL5465560, “Selectivity Literature for EUbOPEN Chemogenomic Library” (2024).

Columns and labels:
[1] = target: T1, Serine/threonine-protein kinase 17A (Homo sapiens) (UniProt Q9UEE5); assay: Selectivity interaction (KinomeScan (DiscoverX)) EUB0000655a STK17A; details: at 10 µM
T1 sequence (whole entry): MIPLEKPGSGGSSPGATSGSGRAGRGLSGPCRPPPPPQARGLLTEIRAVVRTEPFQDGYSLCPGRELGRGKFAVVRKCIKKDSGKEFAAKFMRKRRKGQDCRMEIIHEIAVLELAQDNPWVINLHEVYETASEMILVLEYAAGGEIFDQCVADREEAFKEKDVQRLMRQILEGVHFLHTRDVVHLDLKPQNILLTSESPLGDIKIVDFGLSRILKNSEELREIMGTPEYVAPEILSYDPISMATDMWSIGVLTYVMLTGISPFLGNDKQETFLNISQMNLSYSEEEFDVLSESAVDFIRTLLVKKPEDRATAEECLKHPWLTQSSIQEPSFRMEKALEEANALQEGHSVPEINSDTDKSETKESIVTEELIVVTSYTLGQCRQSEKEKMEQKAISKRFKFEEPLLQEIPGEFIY

[2] = target: T2, cGMP-dependent protein kinase 2 (Homo sapiens) (UniProt Q13237); assay: Selectivity interaction (KinomeScan (DiscoverX)) EUB0001079a PRKG2; details: at 1 µM
T2 sequence (whole entry): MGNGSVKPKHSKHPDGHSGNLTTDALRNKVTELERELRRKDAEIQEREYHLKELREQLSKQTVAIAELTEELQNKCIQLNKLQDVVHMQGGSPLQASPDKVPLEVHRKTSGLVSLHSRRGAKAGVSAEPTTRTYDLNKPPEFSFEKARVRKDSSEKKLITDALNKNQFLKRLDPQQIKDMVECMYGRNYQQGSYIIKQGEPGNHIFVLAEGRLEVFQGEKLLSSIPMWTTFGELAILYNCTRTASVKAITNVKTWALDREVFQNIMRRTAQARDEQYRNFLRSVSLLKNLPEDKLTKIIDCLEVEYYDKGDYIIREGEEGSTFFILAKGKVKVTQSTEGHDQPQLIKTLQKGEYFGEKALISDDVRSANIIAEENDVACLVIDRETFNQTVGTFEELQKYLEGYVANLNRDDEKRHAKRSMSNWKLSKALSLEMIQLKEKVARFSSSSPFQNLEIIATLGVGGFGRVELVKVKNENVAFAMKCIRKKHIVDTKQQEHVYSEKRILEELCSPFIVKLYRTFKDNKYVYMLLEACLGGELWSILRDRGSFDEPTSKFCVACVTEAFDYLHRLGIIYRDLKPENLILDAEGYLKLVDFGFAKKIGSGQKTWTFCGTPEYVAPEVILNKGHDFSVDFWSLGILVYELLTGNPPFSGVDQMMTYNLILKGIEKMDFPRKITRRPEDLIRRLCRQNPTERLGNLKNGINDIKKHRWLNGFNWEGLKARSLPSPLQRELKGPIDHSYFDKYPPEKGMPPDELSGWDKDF

[3] = target: T3, Phosphatidylinositol 4,5-bisphosphate 3-kinase catalytic subunit delta isoform (Homo sapiens) (UniProt O00329); assay: Selectivity interaction (KinomeScan (DiscoverX)) EUB0000695a PIK3CD; details: at 100 nM
T3 sequence (whole entry): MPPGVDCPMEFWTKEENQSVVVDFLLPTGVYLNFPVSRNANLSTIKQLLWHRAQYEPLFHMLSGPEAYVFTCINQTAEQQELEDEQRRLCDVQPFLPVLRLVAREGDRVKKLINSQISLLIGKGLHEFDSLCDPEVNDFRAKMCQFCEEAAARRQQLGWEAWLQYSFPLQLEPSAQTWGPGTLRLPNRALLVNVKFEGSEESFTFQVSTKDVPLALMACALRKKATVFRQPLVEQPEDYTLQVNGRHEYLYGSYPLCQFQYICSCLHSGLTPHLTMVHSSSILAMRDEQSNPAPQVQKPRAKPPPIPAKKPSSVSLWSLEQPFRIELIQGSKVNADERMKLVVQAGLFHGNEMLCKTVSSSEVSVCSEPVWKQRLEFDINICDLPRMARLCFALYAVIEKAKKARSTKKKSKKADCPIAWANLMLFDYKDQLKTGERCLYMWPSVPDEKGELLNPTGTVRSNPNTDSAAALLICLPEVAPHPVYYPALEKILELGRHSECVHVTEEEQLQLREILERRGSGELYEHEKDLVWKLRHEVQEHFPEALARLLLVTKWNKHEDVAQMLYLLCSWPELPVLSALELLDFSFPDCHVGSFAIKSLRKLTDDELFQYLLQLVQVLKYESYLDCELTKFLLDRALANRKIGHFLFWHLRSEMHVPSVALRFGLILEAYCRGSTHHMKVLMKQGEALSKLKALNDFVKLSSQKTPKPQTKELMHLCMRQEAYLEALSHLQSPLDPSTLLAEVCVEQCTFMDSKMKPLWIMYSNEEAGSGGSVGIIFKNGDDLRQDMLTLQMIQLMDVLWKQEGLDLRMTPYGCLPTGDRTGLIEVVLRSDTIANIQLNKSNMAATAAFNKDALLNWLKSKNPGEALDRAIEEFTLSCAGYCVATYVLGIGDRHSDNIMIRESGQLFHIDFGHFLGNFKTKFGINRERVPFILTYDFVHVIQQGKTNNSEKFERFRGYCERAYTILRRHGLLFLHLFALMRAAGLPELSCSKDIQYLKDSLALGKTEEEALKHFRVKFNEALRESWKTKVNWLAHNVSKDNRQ

Question: How did the % of control [1] turn out when `CN(C)CCOc1ccc(-c2nc(-c3ccncc3)c(-c3ccc4c(c3)CC/C4=N\O)[nH]2)cc1` was run?
Answer: 69%

Question: Which % of control [2] does the source give for `Nc1cnc(N2CCc3cc(S(=O)(=O)Nc4c(F)cc(Cl)cc4F)cc(N4CCCC4=O)c32)nc1` [TP-020n] here?
Answer: 84%

Question: `Cc1cc(F)c(C(=O)Nc2cccc(-c3nncn3C(C)C)n2)cc1-n1cnc(C2CC2)c1` was tested. Which % of control [3] did it give?
Answer: 92%
